In patent US9353090B2, “Heterocyclic carboxylic acids as activators of soluble guanylate cyclase” (Boehringer Ingelheim International GmbH, priority 2014, dated 2016):
≈ marks a conversion by molar mass, not a printed value.

Columns and labels:
[1] = molecular target: human soluble guanylate cyclase alpha 1 and beta 1 subunits (sGC) (Homo sapiens (Human), UniProt Q02108+Q02153); experiment: sGC cellular activator assay (cGMP, HTRF), in the presence and absence of 50% human serum; format: cell-based; details: CHO cells stably expressing human sGC alpha 1/beta 1, preincubated with 40 microM ODQ; cGMP by HTRF; Table 2 does not state whether with or without 50% human serum
In short: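 First, CHO-sGC (human α1β1) cells get 1 h ODQ at 40 microM with IBMX and 0.1% BSA. Finally, cGMP is quantified by HTRF and EC50 computed.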

[2] = Human liver microsome (HLM) metabolic stability assay; format: in vitro ADME; details: human liver microsomes
In short: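 Remaining parent measured by LC/MS/MS (ESI, MRM) at 5, 15, 30 and 60 min relative to 0 min. Incubation: 1 uM compound, HLMs, NADPH-started, 37° C., 60 min total, single replicate. Slope of ln(% remaining) gives t1/2 = 0.693/slope, then CLint, CLh and % Qh.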

physchem = details: kinetic from dmso stock
Procedure: Solubility is measured by the following method.
100 uL, 10 mM DMSO stock solution of each compound is prepared in a 96 well plate format. The experiment is done in single determination at 3 pH values (2.2, 4.5 and 6.8). For each pH and one reference, 40 uL of each compound is needed.
McIlvaine pH 2.2: To 2.076 g citric acid monohydrate and 0.043 g Na2HPO4×2H2O add 100 ml deionized water
McIlvaine pH 4.5: To 1.166 g citric acid monohydrate and 1.585 g Na2HPO4×2H2O add 100 ml deionized water
McIlvaine pH 6.8: To 0.476 g citric acid monohydrate and 2.753 g Na2HPO4×2H2O add 100 ml deionized water
With a suitable liquid handling device (Multipette® or a liquid handler) 390 uL of each buffer solution and 10 uL of compound is added to each well of a 96 deep well plate. The plates are covered firmly and shaken for 24 h on an over head shaker (at 54 RPM) at room temperature. The DMSO content in the final buffer is 2.5% v/v.
After 24 h the plates are centrifuged to remove droplets on the lid before opening (for ˜5 min at 2500 RPM).
The filtration is done under vacuum with Millipore 96 well filter plate. Filtrate is collected in a deep well plate and transferred to a suitable plate for UPLC analysis.
The reference plate is prepared by adding 10 uL of compound to 390 uL of 50:50 acetonitrile/water in a 96 deep well plate and transferred to a suitable plate for UPLC analysis. Wells are checked visually for precipitation, any presence noted under comments in reported results.
The samples are measured with UPLC-UV using the chromatographic method described below.
Waters Empower®2 software is used for generating Sample Sets (according to the plate layout), Sample Set Methods and Instrument Methods.
One Sample Set comprises the methods for three 96 well plates (one reference plate and two sample plates, and includes one Sample Set Method and one Instrument Method).
Data Processing and Analysis
The UV chromatograms collected at 254 nm are integrated and processed.
It is assumed that the compound is completely dissolved in the reference solution (50:50 acetonitrile/water)

[3] = pH 2.2, aqueous buffer, Solubility (pH 2.2)
[4] = pH 4.5, aqueous buffer, Solubility (pH 4.5)
[5] = pH 6.8, aqueous buffer, Solubility (pH 6.8)

Sequence of human soluble guanylate cyclase alpha 1 and beta 1 subunits (sGC) (Q02108 whole entry partner): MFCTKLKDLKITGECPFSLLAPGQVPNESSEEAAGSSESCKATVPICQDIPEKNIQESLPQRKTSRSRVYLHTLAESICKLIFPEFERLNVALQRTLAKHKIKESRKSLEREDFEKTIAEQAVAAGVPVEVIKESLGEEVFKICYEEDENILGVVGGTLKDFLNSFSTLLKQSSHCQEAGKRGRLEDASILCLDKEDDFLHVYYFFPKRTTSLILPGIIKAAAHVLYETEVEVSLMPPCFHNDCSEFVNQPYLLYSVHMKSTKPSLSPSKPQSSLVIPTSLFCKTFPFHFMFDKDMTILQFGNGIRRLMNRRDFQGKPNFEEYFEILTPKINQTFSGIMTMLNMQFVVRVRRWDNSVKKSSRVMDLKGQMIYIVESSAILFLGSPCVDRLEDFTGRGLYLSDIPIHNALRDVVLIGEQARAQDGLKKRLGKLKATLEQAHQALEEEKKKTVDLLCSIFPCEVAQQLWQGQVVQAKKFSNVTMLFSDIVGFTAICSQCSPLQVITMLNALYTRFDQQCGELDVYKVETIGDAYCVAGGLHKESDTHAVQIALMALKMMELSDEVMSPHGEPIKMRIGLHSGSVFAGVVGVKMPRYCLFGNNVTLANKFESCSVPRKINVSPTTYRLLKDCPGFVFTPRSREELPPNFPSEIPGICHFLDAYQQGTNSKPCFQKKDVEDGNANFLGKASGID
Sequence of human soluble guanylate cyclase alpha 1 and beta 1 subunits (sGC) (Q02153 whole entry): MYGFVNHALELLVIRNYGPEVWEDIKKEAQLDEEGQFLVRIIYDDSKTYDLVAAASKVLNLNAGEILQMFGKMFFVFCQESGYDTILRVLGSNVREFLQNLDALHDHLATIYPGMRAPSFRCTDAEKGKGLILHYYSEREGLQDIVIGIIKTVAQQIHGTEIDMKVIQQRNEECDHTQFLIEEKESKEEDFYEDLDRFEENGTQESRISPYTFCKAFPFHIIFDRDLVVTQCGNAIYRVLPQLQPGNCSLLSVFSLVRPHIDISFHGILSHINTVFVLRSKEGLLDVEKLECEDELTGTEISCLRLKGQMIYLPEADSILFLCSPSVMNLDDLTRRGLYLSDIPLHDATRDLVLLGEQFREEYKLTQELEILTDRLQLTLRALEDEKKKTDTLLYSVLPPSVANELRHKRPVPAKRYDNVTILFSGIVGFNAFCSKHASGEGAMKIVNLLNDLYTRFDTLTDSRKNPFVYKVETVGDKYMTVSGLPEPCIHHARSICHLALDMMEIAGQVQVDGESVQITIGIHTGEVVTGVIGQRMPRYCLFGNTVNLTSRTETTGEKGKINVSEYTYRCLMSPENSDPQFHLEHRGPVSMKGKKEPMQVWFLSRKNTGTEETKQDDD

| SMILES | EC50 [1] | Metabolic stability (Qh %), % hepatic blood flow [2] | solubility at 24 h (physchem; [3]) | solubility at 24 h (physchem; [4]) | solubility at 24 h (physchem; [5]) |
| --- | --- | --- | --- | --- | --- |
| Cc1ccc(OCc2ccc3c(c2C)CCN(C2CCOCC2)C3)c(-c2cccc(N3C[C@@H]4C[C@]4(C(=O)O)C3)n2)c1 [Compound 35] | 45 nM | <24% | 100 µg/mL (≈ 181 µM) | 93 µg/mL (≈ 168 µM) | 6.4 µg/mL (≈ 11.6 µM) |
| CO[C@H]1CN(c2nc(-c3cccc(C)c3OCc3ccc4c(c3C)CCN(C3CCOCC3)C4)cs2)CC[C@H]1C(=O)O [Compound 165] | 12 nM | <24% | 120 µg/mL (≈ 203 µM) | 86 µg/mL (≈ 145 µM) | 77 µg/mL (≈ 130 µM) |
| COC[C@H]1N(c2cccc(-c3cccc(Cl)c3OCc3cc(C)c4c(c3)CCN(C3CCOCC3)C4)n2)C[C@@H]2C[C@@]21C(=O)O [Compound 221] | 12 nM | <24% | 155 µg/mL (≈ 251 µM) | 144 µg/mL (≈ 233 µM) | 132 µg/mL (≈ 213 µM) |
| CO[C@@H]1CN(c2nc(-c3cc(F)cc(C)c3OCc3ccc4c(c3)[C@@H](C)CN(C3CCOCC3)CC4)cs2)CC[C@@H]1C(=O)O [Compound 328] | 2 nM | 45% | 97.4 µg/mL (≈ 156 µM) | 59.4 µg/mL (≈ 95.2 µM) | 56.8 µg/mL (≈ 91.1 µM) |
| CO[C@@H]1CN(c2cccc(-c3cccc(C)c3OCc3ccc4c(c3C)CCN([C@H]3CCOC3)CC4)n2)CC[C@@H]1C(=O)O [Compound 301] | 1 nM | <24% | 141 µg/mL (≈ 241 µM) | 105 µg/mL (≈ 180 µM) | 91.1 µg/mL (≈ 156 µM) |
| Cc1ccc(OCc2ccc3c(c2C)CCN(C2CCOCC2)CC3)c(-c2csc(N3C[C@@H]4C[C@]4(C(=O)O)C3)n2)c1 [Compound 150] | 24 nM | <24% | 100 µg/mL (≈ 174 µM) | 44 µg/mL (≈ 76.7 µM) | 9.7 µg/mL (≈ 16.9 µM) |
| COC[C@H]1N(c2cccc(-c3cccc(C)c3OCc3cc(C)c4c(c3)CCN(C3CCOC3)C4)n2)C[C@@H]2C[C@@]21C(=O)O (single isomer, unassigned) [Compound 51] | 27 nM | 28% | 110 µg/mL (≈ 188 µM) | 94 µg/mL (≈ 161 µM) | 74 µg/mL (≈ 127 µM) |
| Cc1cccc(-c2cccc(N3C[C@@H]4C[C@]4(C(=O)O)C3)n2)c1OCc1ccc2c(c1)CCN(C1CCOCC1)CC2 [Compound 31] | 7 nM | <24% | 110 µg/mL (≈ 199 µM) | 95 µg/mL (≈ 172 µM) | 67 µg/mL (≈ 121 µM) |
| CO[C@@H]1CN(c2cccc(-c3cc(C)ccc3OCc3ccc4c(c3C)CCN(C3CCOCC3)CC4)n2)CC[C@@H]1C(=O)O [Compound 81] | 30 nM | 30% | > 160 µg/mL | > 160 µg/mL | 91 µg/mL (≈ 152 µM) |
| COc1cc(COc2c(C)cccc2-c2cccc(N3C[C@@H]4C[C@]4(C(=O)O)C3)n2)cc2c1CN(C1CCOCC1)CC2 [Compound 27] | 16 nM | <24% | 110 µg/mL (≈ 193 µM) | 95 µg/mL (≈ 167 µM) | 68 µg/mL (≈ 119 µM) |
| COC[C@@H]1N(c2cccc(-c3cccc(C)c3OCc3cc(C)c4c(c3)CCN(C3CCOCC3)C4)n2)C[C@H]2C[C@]21C(=O)O [Compound 63] | 96 nM | <24% | 130 µg/mL (≈ 217 µM) | 130 µg/mL (≈ 217 µM) | 130 µg/mL (≈ 217 µM) |
| Cc1c(COc2ccccc2-c2cccc(N3CC[C@@]4(C(=O)O)C[C@H]4C3)n2)ccc2c1CCN(C1CCC1)C2 [Compound 292] | 3 nM | 47% | 113 µg/mL (≈ 216 µM) | 43.5 µg/mL (≈ 83.1 µM) | 6.2 µg/mL (≈ 11.8 µM) |
| Cc1c(COc2ccccc2-c2ccnc(N3CC[C@@]4(C(=O)O)C[C@H]4C3)n2)ccc2c1CCN(C1CCOCC1)C2 [Compound 185] | 21 nM | 33% | 100 µg/mL (≈ 180 µM) | 43 µg/mL (≈ 77.5 µM) | 42 µg/mL (≈ 75.7 µM) |
| Cc1cc(COc2c(C)cccc2-c2csc(N3C[C@H]4C[C@@]4(C(=O)O)[C@@H]3C)n2)cc2c1CN(C1CCOCC1)CC2 [Compound 157] | 28 nM | <24% | 97 µg/mL (≈ 169 µM) | 72 µg/mL (≈ 125 µM) | 63 µg/mL (≈ 110 µM) |
| CO[C@@H]1CN(c2nc(-c3cc(F)cc(C)c3OCc3ccc4c(c3C)CCN(C3CCOCC3)CC4)cs2)CC[C@@H]1C(=O)O [Compound 329] | 13 nM | <24% | 103 µg/mL (≈ 164 µM) | 63.9 µg/mL (≈ 102 µM) | 68 µg/mL (≈ 109 µM) |
| CCO[C@H]1CN(c2nc(-c3cccc(Cl)c3OCc3cc4c(c(OC)c3)CN(C3CCOCC3)CC4)cs2)CC[C@H]1C(=O)O [Compound 261] | 3 nM | 29% | 116 µg/mL (≈ 180 µM) | 40.7 µg/mL (≈ 63.4 µM) | 38.9 µg/mL (≈ 60.6 µM) |
| O=C(O)[C@@]12CCN(c3cccc(-c4ccccc4OCc4ccc5c(c4)CCN(C4CCOCC4)C5)n3)C[C@@H]1C2 [Compound 1, (1R,6S)-3-(6-{2-[2-(Tetrahydro-pyran-4-yl)-1,2,3,4-tetrahydro-isoquinolin-6-ylmethoxy]-phenyl}-pyridin-2-yl)-3-aza-bicyclo[4.1.0]heptane-6-carboxylic acid] | 7 nM | <24% | 140 µg/mL (≈ 259 µM) | 120 µg/mL (≈ 222 µM) | 57 µg/mL (≈ 106 µM) |
| COC[C@H]1N(c2nc(-c3cc(C)ccc3OCc3ccc4c(c3C)CCN(C3CCOCC3)C4)cs2)C[C@@H]2C[C@@]21C(=O)O [Compound 164] | 108 nM | <24% | 120 µg/mL (≈ 199 µM) | 75 µg/mL (≈ 124 µM) | 59 µg/mL (≈ 97.7 µM) |
| CO[C@H]1CN(c2cccc(-c3cccc(C)c3OCc3ccc4c(c3C)CCN(C3CCOCC3)C4)n2)CC[C@H]1C(=O)O [Compound 65] | 29 nM | 31% | 130 µg/mL (≈ 222 µM) | 110 µg/mL (≈ 188 µM) | 80 µg/mL (≈ 137 µM) |
| CO[C@@H]1CN(c2cccc(-c3cccc(C)c3OCc3cc(C)c4c(c3)CCN(C3CCOCC3)C4)n2)CC[C@H]1C(=O)O [Compound 299] | 152 nM | 31% | 134 µg/mL (≈ 229 µM) | 90.8 µg/mL (≈ 155 µM) | 70.8 µg/mL (≈ 121 µM) |
| O=C(O)[C@@]12CCN(c3cccc(-c4ccccc4OCc4ccc5c(c4)CCN(C4COC4)C5)n3)C[C@@H]1C2 [Compound 2] | 11 nM | <24% | 110 µg/mL (≈ 215 µM) | 90 µg/mL (≈ 176 µM) | 58 µg/mL (≈ 113 µM) |
| Cc1ccc(OCc2ccc3c(c2C)CCN(C2CCCOC2)CC3)c(-c2csc(N3CC[C@@]4(C(=O)O)C[C@H]4C3)n2)c1 (some centres unmarked) [Compound 134] | 11 nM | 53% | 110 µg/mL (≈ 187 µM) | 8.5 µg/mL (≈ 14.5 µM) | 0.95 µg/mL (≈ 1.62 µM) |
| CO[C@@H]1CN(c2nc(-c3cccc(C)c3OCc3cc(C)c4c(c3)CCN(CC3COCCO3)C4)cs2)CC[C@@H]1C(=O)O (some centres unmarked) [Compound 175] | 155 nM | <24% | 140 µg/mL (≈ 230 µM) | 100 µg/mL (≈ 165 µM) | 95 µg/mL (≈ 156 µM) |
| CCO[C@@H]1CN(c2cccc(-c3cccc(Cl)c3OCc3cc4c(c(OC)c3)CN(C3CCOCC3)CC4)n2)CC[C@@H]1C(=O)O [Compound 260] | 56 nM | 40% | 148 µg/mL (≈ 233 µM) | 83.9 µg/mL (≈ 132 µM) | 58.3 µg/mL (≈ 91.6 µM) |
| Cc1c(COc2ccccc2-c2cccc(N3CC[C@@]4(C(=O)O)C[C@H]4C3)n2)ccc2c1CCN(CC1COCCO1)C2 (some centres unmarked) [Compound 5] | 3 nM | 35% | 160 µg/mL (≈ 281 µM) | 140 µg/mL (≈ 246 µM) | 79 µg/mL (≈ 139 µM) |
